# Measured values: patent US7977403B2, “Antiseptic containing silicone elastomers” (Bayer Innovation GmbH, priority 2006, dated 2011)
# Tested on: L 929 mouse fibroblast cells
# Assay: Biocompatibility (cytotoxicity) test of material extract, DIN ISO 10993-5
# Assay type: cell-based
# Settings: final concentration 1%, 48 h
# Procedure: Biocompatibility Tests as Specified in DIN ISO 10993-5 (1999), EN 30993-5 (1994) The catheter shafts from Example 13 were for this purpose extracted non-sterile at 37° C. and 5% pCO2 in extraction medium (DMEM including antibiotics without FCS) for 24 h. The surface-volume ratio was 1 cm^2/ml of extraction medium. After completion of the extraction, the extraction medium was sterilized by filtration and supplemented with sterile FCS (final concentration: 10% FCS in the extraction medium). The FCS-supplemented extraction medium was put sterile on precultured L 929 mouse fibroblast cells and incubated at 37° C., 5% pCO2 for 48 h. The extract was subjected to quadruplicate parallel testing. Triton X 100 was added to the L929 cells used as toxic positive control (final concentration 1%). Cell culture medium served as non-toxic negative control. After the 48-hour incubation, the release of lactate dehydrogenase (LDH) in the cell culture supernatant was measured by a photometric method. The cells were then subjected to alkaline lysis and the protein content was measured by the Bradford method. The cells were fixed and stained with methylene blue to determine the cell count. After acidic extraction of the methylene blue, the dye content was ascertained by photometry and the extinction was compared with a standard curve in order to determine the cell count on the basis of the dye concentration. Results are shown at FIG. 12.
substance,measurement,setting,value
Triton X 100,Protein content relative to negative control,Bradford method,6.8 % of the negative control value
same,Specific LDH activity increase compared with the negative control,cell culture supernatant,more than 31 fold
same,Cell count relative to negative control,methylene blue,0.5 % of the negative control value
